Test results taken from ChEMBL document CHEMBL4507267 (2021).

Experiments:
[1] = test system: Tyrosine-protein kinase ABL1 (Homo sapiens), P00519 [Q252H]; settings: Compound concentration 1000.0 nM
[2] = target: Atypical kinase COQ8B, mitochondrial (Homo sapiens) (UniProt Q96D53); settings: Compound concentration 1000.0 nM
[3] = target: NUAK family SNF1-like kinase 1 (Homo sapiens) (UniProt O60285); settings: Compound concentration 1000.0 nM
[4] = target: Calcium/calmodulin-dependent protein kinase type 1D (Homo sapiens) (UniProt Q8IU85); settings: Compound concentration 1000.0 nM
[5] = target: Calcium/calmodulin-dependent protein kinase kinase 2 (Homo sapiens) (UniProt Q96RR4); settings: Compound concentration 1000.0 nM
[6] = target: Dual specificity protein kinase CLK1 (Homo sapiens) (UniProt P49759); settings: Compound concentration 1000.0 nM
[7] = test system: Epidermal growth factor receptor (Homo sapiens), P00533 [UNDEFINED MUTATION]; settings: Compound concentration 1000.0 nM
[8] = target: Ephrin type-B receptor 1 (Homo sapiens) (UniProt P54762); settings: Compound concentration 1000.0 nM
[9] = target: Fibroblast growth factor receptor 2 (Homo sapiens) (UniProt P21802); settings: Compound concentration 1000.0 nM
[10] = test system: Receptor-type tyrosine-protein kinase FLT3 (Homo sapiens), P36888 [UNDEFINED MUTATION]; settings: Compound concentration 1000.0 nM
[11] = test system: Receptor-type tyrosine-protein kinase FLT3 (Homo sapiens), P36888 [K663Q]; settings: Compound concentration 1000.0 nM
[12] = target: Tyrosine-protein kinase Fyn (Homo sapiens) (UniProt P06241); settings: Compound concentration 1000.0 nM
[13] = test system: eIF-2-alpha kinase GCN2 (Homo sapiens), Q9P2K8 [S808G]; settings: Compound concentration 1000.0 nM
[14] = target: G protein-coupled receptor kinase 4 (Homo sapiens) (UniProt P32298); settings: Compound concentration 1000.0 nM
[15] = target: Homeodomain-interacting protein kinase 4 (Homo sapiens) (UniProt Q8NE63); settings: Compound concentration 1000.0 nM
[16] = test system: Mast/stem cell growth factor receptor Kit (Homo sapiens), P10721 [L576P]; settings: Compound concentration 1000.0 nM
[17] = test system: Mast/stem cell growth factor receptor Kit (Homo sapiens), P10721 [V559D,V654A]; settings: Compound concentration 1000.0 nM
[18] = target: Tyrosine-protein kinase Lck (Homo sapiens) (UniProt P06239); settings: Compound concentration 1000.0 nM
[19] = target: LIM domain kinase 2 (Homo sapiens) (UniProt P53671); settings: Compound concentration 1000.0 nM
[20] = target: Maternal embryonic leucine zipper kinase (Homo sapiens) (UniProt Q14680); settings: Compound concentration 1000.0 nM
[21] = target: MAP kinase-interacting serine/threonine-protein kinase 1 (Homo sapiens) (UniProt Q9BUB5); settings: Compound concentration 1000.0 nM
[22] = target: MAP kinase-interacting serine/threonine-protein kinase 2 (Homo sapiens) (UniProt Q9HBH9); settings: Compound concentration 1000.0 nM
[23] = target: Serine/threonine-protein kinase MRCK alpha (Homo sapiens) (UniProt Q5VT25); settings: Compound concentration 1000.0 nM
[24] = target: Phosphatidylinositol 4,5-bisphosphate 3-kinase catalytic subunit gamma isoform (Homo sapiens) (UniProt P48736); settings: Compound concentration 1000.0 nM
[25] = target: Membrane-associated tyrosine- and threonine-specific cdc2-inhibitory kinase (Homo sapiens) (UniProt Q99640); settings: Compound concentration 1000.0 nM
[26] = target: Serine/threonine-protein kinase N1 (Homo sapiens) (UniProt Q16512); settings: Compound concentration 1000.0 nM
[27] = target: Protein kinase C eta type (Homo sapiens) (UniProt P24723); settings: Compound concentration 1000.0 nM
[28] = target: Protein kinase C iota type (Homo sapiens) (UniProt P41743); settings: Compound concentration 1000.0 nM
[29] = target: Serine/threonine-protein kinase D2 (Homo sapiens) (UniProt Q9BZL6); settings: Compound concentration 1000.0 nM
[30] = target: Serine/threonine-protein kinase RIO1 (Homo sapiens) (UniProt Q9BRS2); settings: Compound concentration 1000.0 nM
[31] = target: Ribosomal protein S6 kinase beta-1 (Homo sapiens) (UniProt P23443); settings: Compound concentration 1000.0 nM
[32] = target: Serine/threonine-protein kinase Sgk2 (Homo sapiens) (UniProt Q9HBY8); settings: Compound concentration 1000.0 nM
[33] = target: Tyrosine-protein kinase Srms (Homo sapiens) (UniProt Q9H3Y6); settings: Compound concentration 1000.0 nM
[34] = target: Serine/threonine-protein kinase 35 (Homo sapiens) (UniProt Q8TDR2); settings: Compound concentration 1000.0 nM
[35] = target: TRAF2 and NCK-interacting protein kinase (Homo sapiens) (UniProt Q9UKE5); settings: Compound concentration 1000.0 nM
[36] = target: Non-receptor tyrosine-protein kinase TNK1 (Homo sapiens) (UniProt Q13470); settings: Compound concentration 1000.0 nM
[37] = target: BDNF/NT-3 growth factors receptor (Homo sapiens) (UniProt Q16620); settings: Compound concentration 1000.0 nM
[38] = target: Serine/threonine-protein kinase ULK1 (Homo sapiens) (UniProt O75385); settings: Compound concentration 1000.0 nM
[39] = target: Serine/threonine-protein kinase ULK2 (Homo sapiens) (UniProt Q8IYT8); settings: Compound concentration 1000.0 nM
[40] = target: Serine/threonine-protein kinase VRK2 (Homo sapiens) (UniProt Q86Y07); settings: Compound concentration 1000.0 nM
[41] = target: Serine/threonine-protein kinase WNK1 (Homo sapiens) (UniProt Q9H4A3); settings: Compound concentration 1000.0 nM
[42] = target: Serine/threonine-protein kinase WNK3 (Homo sapiens) (UniProt Q9BYP7); settings: Compound concentration 1000.0 nM
[43] = target: D(1B) dopamine receptor (Homo sapiens) (UniProt P21918); settings: Compound concentration 10.0 uM
[44] = target: Alpha-2C adrenergic receptor (Homo sapiens) (UniProt P18825); settings: Compound concentration 10.0 uM

eIF-2-alpha kinase GCN2 (Homo sapiens), Q9P2K8 [S808G], sequence (Q9P2K8 whole entry S808G): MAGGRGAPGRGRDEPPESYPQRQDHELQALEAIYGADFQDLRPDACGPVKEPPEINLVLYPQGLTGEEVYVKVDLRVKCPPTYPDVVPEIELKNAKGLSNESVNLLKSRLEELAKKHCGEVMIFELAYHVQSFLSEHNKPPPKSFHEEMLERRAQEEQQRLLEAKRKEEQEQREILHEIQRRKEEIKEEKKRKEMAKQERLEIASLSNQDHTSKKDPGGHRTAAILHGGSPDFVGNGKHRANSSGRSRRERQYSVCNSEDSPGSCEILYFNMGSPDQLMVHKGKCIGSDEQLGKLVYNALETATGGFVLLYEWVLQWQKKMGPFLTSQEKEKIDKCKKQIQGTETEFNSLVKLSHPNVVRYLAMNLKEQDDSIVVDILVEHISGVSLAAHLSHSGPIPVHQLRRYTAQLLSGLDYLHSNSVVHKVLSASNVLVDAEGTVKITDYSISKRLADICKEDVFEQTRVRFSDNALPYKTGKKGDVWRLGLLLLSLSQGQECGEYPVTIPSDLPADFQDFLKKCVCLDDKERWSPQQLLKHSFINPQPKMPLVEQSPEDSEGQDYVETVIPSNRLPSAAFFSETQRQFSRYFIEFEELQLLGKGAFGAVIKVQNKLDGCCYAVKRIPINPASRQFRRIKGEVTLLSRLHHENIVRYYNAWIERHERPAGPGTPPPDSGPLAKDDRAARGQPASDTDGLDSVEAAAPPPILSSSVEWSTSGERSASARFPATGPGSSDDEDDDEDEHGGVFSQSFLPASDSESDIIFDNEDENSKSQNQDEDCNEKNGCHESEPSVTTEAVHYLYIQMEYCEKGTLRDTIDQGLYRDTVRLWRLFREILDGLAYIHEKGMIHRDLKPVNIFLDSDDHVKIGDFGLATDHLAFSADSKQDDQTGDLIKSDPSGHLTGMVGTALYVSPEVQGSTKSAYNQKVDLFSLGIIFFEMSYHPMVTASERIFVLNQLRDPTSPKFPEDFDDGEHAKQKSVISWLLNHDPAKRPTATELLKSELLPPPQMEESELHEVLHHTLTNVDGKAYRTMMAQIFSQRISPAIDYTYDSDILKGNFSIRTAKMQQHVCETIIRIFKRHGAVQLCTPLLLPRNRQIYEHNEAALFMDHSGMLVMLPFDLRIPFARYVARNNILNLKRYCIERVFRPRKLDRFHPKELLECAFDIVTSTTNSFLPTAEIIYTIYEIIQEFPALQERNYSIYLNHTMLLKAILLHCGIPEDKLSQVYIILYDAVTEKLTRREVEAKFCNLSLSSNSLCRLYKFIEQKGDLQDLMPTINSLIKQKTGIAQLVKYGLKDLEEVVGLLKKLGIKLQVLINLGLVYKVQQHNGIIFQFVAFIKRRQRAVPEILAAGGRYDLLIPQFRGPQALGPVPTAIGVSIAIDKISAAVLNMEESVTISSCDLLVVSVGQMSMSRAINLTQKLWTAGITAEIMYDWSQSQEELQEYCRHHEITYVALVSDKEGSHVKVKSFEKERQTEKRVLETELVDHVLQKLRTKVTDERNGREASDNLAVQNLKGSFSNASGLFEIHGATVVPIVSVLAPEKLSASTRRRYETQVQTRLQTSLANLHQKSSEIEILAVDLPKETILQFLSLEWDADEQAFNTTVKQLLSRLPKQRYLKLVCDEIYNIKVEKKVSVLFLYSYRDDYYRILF
Protein kinase C iota type (Homo sapiens), sequence (P41743 whole entry): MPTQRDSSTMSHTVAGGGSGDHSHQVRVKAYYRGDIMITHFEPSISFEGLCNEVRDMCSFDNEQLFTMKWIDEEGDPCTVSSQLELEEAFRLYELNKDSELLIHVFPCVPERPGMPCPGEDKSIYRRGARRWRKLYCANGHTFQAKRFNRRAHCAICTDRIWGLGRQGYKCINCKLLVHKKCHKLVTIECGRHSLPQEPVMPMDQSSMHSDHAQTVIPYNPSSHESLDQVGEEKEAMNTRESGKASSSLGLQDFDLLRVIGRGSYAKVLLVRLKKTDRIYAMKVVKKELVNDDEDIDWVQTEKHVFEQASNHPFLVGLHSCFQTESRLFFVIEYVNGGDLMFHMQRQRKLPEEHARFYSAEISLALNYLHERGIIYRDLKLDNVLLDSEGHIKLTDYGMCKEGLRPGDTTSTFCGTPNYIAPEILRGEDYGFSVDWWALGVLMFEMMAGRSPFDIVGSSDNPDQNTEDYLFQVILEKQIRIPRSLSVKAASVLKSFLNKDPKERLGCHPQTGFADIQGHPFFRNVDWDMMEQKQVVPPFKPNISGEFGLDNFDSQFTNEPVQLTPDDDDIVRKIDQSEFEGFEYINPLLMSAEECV
Serine/threonine-protein kinase WNK3 (Homo sapiens), sequence (Q9BYP7 whole entry): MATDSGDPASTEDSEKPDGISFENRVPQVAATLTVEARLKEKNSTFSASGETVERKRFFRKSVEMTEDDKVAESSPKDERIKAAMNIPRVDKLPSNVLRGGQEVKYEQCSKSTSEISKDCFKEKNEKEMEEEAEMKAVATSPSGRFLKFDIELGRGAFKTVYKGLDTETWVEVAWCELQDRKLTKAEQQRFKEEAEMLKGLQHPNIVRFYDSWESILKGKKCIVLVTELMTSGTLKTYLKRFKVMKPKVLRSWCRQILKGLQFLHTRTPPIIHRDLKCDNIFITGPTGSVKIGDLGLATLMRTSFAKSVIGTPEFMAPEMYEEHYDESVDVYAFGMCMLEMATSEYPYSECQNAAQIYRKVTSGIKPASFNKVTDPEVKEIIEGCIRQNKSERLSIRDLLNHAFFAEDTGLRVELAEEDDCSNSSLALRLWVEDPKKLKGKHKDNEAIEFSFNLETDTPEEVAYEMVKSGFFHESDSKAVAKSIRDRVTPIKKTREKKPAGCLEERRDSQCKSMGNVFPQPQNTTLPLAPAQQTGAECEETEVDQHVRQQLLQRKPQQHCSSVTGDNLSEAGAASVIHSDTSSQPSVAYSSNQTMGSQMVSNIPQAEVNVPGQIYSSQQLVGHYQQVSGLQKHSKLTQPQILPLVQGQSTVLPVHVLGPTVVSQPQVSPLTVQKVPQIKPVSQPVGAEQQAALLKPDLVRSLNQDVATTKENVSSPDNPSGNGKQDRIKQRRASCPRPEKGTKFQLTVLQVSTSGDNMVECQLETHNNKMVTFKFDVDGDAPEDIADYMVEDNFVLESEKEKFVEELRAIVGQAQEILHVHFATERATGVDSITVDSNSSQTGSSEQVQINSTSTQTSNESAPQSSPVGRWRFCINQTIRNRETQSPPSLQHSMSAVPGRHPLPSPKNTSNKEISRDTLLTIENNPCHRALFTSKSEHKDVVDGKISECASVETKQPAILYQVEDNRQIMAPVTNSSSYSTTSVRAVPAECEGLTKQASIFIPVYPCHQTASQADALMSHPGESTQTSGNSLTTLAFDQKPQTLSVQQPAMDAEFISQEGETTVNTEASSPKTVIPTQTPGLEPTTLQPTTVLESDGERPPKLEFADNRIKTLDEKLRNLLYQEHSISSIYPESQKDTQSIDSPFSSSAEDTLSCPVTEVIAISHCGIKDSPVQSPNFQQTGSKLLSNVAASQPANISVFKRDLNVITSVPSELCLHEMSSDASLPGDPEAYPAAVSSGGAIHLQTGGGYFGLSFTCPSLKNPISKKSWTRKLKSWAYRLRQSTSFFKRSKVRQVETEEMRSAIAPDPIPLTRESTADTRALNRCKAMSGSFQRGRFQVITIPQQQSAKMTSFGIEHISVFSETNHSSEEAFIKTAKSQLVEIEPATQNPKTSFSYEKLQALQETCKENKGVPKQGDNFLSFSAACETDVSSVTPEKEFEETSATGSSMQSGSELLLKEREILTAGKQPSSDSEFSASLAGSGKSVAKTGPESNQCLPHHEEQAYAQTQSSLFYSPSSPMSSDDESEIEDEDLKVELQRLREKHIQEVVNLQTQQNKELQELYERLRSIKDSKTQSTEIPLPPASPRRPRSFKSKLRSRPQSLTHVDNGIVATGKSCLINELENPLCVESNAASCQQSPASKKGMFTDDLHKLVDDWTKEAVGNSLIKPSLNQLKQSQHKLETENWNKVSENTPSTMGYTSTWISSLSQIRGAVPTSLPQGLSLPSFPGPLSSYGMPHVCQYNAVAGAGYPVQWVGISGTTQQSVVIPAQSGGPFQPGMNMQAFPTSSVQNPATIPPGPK
Maternal embryonic leucine zipper kinase (Homo sapiens), sequence (Q14680 whole entry, looked up): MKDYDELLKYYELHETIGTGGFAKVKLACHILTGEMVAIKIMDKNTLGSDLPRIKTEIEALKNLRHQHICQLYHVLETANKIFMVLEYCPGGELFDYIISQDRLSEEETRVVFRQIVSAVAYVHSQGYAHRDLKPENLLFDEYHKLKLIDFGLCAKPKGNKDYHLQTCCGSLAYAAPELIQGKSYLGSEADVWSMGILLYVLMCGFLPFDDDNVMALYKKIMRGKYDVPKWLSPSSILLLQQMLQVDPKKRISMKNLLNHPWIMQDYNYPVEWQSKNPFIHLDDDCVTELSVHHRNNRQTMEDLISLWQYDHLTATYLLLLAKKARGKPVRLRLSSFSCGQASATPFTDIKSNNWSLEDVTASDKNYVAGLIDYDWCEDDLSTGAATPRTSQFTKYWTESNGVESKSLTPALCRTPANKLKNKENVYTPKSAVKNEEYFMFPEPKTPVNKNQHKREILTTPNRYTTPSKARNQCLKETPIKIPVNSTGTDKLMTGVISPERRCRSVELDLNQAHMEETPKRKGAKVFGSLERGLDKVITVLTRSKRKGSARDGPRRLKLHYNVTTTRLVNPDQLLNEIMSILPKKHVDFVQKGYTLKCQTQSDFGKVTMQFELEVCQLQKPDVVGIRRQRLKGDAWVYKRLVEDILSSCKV
Calcium/calmodulin-dependent protein kinase type 1D (Homo sapiens), sequence (Q8IU85 whole entry, looked up): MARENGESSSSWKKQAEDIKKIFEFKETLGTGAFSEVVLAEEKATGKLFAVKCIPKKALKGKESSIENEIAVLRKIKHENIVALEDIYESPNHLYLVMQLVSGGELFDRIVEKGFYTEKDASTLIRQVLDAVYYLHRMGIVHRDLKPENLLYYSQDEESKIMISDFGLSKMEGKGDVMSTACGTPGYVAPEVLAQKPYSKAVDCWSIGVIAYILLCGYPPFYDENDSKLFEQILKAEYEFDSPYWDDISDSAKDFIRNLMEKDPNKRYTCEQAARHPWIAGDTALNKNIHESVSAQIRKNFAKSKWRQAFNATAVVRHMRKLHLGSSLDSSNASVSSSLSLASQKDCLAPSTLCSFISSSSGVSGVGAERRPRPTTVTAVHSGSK

Cc1c(NC(=O)c2cc(C(N)=O)nc3cc(F)ccc23)c(C(F)(F)F)nn1Cc1ccc(C(C)(C)C)cc1 [BAY-588]
inactive: residual activity [1] 84% | residual activity [2] 70% | residual activity [3] 94% | residual activity [4] 84% | residual activity [5] 78% | residual activity [6] 62% | residual activity [7] 75% | residual activity [8] 86% | residual activity [9] 100% | residual activity [10] 100% | residual activity [11] 100% | residual activity [12] 100% | residual activity [13] 56% | residual activity [14] 100% | residual activity [15] 88% | residual activity [16] 95% | residual activity [17] 98% | residual activity [18] 100% | residual activity [19] 84% | residual activity [20] 100% | residual activity [21] 100% | residual activity [22] 100% | residual activity [23] 100% | residual activity [24] 100% | residual activity [25] 100% | residual activity [26] 100% | residual activity [27] 97% | residual activity [28] 98% | residual activity [29] 100% | residual activity [30] 93% | residual activity [31] 100% | residual activity [32] 100% | residual activity [33] 100% | residual activity [34] 100% | residual activity [35] 98% | residual activity [36] 100% | residual activity [37] 100% | residual activity [38] 98% | residual activity [39] 100% | residual activity [40] 95% | residual activity [41] 100% | residual activity [42] 97% | inhibition [43] 2.96% | inhibition [44] 2.11%

Cc1c(NC(=O)c2cc(C(N)=O)nc3cc(F)ccc23)c(C(F)(F)F)nn1Cc1ccc(C#N)cc1 [BAY-876]
inactive: residual activity [1] 100% | residual activity [2] 80% | residual activity [3] 100% | residual activity [4] 100% | residual activity [5] 92% | residual activity [6] 86% | residual activity [7] 79% | residual activity [8] 66% | residual activity [9] 88% | residual activity [10] 68% | residual activity [11] 93% | residual activity [12] 94% | residual activity [13] 100% | residual activity [14] 100% | residual activity [15] 100% | residual activity [16] 92% | residual activity [17] 58% | residual activity [18] 98% | residual activity [19] 95% | residual activity [20] 90% | residual activity [21] 68% | residual activity [22] 92% | residual activity [23] 97% | residual activity [24] 80% | residual activity [25] 99% | residual activity [26] 98% | residual activity [27] 95% | residual activity [28] 84% | residual activity [29] 100% | residual activity [30] 93% | residual activity [31] 80% | residual activity [32] 80% | residual activity [33] 62% | residual activity [34] 85% | residual activity [35] 92% | residual activity [36] 81% | residual activity [37] 54% | residual activity [38] 81% | residual activity [39] 81% | residual activity [40] 72% | residual activity [41] 80% | residual activity [42] 77% | inhibition [43] -0.829% | inhibition [44] -0.745%
